Patent US9745325B2, “Fused heterocyclic compound” (Takeda Pharmaceutical Company Limited, priority 2014, dated 2017)

How the values were obtained:
[1] = biological target: T1, CDK8/CycC (Homo sapiens, UniProt P49336); assay: CDK8 inhibitory activity (Kinase Tracer-236 / Eu-anti-GST fluorescence assay); assay type: binding; design: Percent inhibition of CDK8 activity (%): concentration or dose not given beside the values; conditions: test compound concentration given as '1 1.1.1\4' [sic]
T1 construct: purchased Carna Biosciences
T1 sequence (P49336 whole entry): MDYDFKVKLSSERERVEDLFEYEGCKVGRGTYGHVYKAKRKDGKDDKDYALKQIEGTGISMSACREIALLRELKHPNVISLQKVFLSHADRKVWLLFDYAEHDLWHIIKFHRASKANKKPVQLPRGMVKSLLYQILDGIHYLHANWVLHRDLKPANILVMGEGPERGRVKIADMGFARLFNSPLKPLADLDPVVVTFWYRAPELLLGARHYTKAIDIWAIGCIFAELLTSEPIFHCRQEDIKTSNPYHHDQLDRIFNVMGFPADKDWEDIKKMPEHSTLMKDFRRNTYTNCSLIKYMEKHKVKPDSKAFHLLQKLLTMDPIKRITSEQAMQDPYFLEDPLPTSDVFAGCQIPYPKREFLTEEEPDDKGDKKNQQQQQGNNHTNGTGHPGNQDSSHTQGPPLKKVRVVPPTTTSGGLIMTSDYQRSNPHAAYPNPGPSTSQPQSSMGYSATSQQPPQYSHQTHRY
T1 sequence (P24863 whole entry partner): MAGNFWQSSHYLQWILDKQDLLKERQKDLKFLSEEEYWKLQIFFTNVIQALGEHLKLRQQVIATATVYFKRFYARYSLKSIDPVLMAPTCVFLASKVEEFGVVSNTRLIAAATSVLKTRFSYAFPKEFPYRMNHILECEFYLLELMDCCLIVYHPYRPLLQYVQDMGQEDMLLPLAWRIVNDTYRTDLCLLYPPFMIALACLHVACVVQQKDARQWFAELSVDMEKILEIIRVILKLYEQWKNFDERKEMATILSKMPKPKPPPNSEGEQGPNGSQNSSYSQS
Procedure, shortened: (§1)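 Tracer-displacement TR-FRET binding assay: compound with kinase, Eu-cryptate anti-GST antibody and 60 nM Kinase Tracer-236 (pre-dilution level), 1 h at room temperature; ex 320 nm, em 615/665 nm. Percent inhibition is relative to no-compound control and a 10 μM control-compound blank.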

[2] = biological target: T2, CDC2L6/CycC (CDK19) (Homo sapiens, UniProt Q9BWU1); assay: CDK19 inhibitory activity (Kinase Tracer-236 / Eu-anti-GST fluorescence assay); assay type: binding; design: Percent inhibition of CDK19 activity (%): concentration or dose not given beside the values; conditions: test compound concentration given as '1 1.1.1\4' [sic]
T2 construct: purchased Carna Biosciences Inc
T2 sequence (Q9BWU1 whole entry): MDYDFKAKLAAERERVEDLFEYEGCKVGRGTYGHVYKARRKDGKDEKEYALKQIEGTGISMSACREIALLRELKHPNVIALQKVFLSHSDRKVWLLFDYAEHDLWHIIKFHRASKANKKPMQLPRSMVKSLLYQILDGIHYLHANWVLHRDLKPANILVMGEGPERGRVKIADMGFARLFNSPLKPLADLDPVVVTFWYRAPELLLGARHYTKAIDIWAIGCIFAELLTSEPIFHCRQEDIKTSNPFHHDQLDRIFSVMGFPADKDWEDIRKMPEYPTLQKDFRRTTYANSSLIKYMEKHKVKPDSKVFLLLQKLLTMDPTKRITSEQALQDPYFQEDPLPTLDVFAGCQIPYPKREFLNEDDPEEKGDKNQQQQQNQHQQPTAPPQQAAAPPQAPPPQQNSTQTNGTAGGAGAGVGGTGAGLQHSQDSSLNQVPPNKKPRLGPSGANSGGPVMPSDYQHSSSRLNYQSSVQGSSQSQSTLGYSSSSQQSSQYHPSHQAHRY
T2 sequence (P24863 whole entry partner): as the sequence (P24863 whole entry partner) above
Procedure, shortened: as §1

[3] = test system: human multiple myeloma RPMI8226 cells; assay: Inhibitory activity against human multiple myeloma RPMI8226 cell growth (CellTiter-Glo); assay type: cell-based; conditions: Homo sapiens, RPMI-8226, 192 h, 1 μM test compound, cultured for 8 days; read-out: Percent inhibition of RPMI8226 cell growth (%)
Procedure, shortened: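 RPMI8226 cells (300/well) cultured 1 day at 37 °C, 5% CO2, then given compound at 1 μM for 8 days. ATP luminescence (CellTiter-Glo) read; percent inhibition relative to 0.1% DMSO wells.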

CCOCCNC(=O)c1ccc(Oc2sc(C(N)=O)c3c2-c2sncc2CC3)c(C)n1 [Example 119, 8-((6-((2-Ethoxyethyl)carbamoyl)-2-methylpyridin-3-yl)oxy)-4,5-dihydrothieno[3,4-g][1,2]benzothiazole-6-carboxamide]
Percent inhibition of CDK8 activity (%) [1]: 108% | Percent inhibition of CDK19 activity (%) [2]: 101% | inhibition at 1 µM [3]: 68%

CCOCCNC(=O)c1ccc(Oc2sc(C(N)=O)c3c2-c2sncc2CC3)cc1 [Example 120]
Percent inhibition of CDK8 activity (%) [1]: 104% | Percent inhibition of CDK19 activity (%) [2]: 99% | inhibition at 1 µM [3]: 74%

COCCN(C)C(=O)c1ccc(Oc2sc(C(N)=O)c3c2-c2sncc2CC3)c(C)n1 [Example 121, 8-((6-((2-Methoxyethyl)(methyl)carbamoyl)-2-methylpyridin-3-yl)oxy)-4,5-dihydrothieno[3,4-g][1,2] benzothiazole-6-carboxamide]
Percent inhibition of CDK8 activity (%) [1]: 104% | Percent inhibition of CDK19 activity (%) [2]: 101% | inhibition at 1 µM [3]: 63%

COCCN(C)C(=O)c1ccc(Oc2sc(C(N)=O)c3c2-c2sncc2CC3)cc1 [Example 123]
Percent inhibition of CDK8 activity (%) [1]: 100% | Percent inhibition of CDK19 activity (%) [2]: 101% | inhibition at 1 µM [3]: 64%

Cc1n[nH]c(C)c1Oc1sc(C(N)=O)c2c1-c1sncc1CC2 [Example 124, 8-((3,5-Dimethyl-1H-pyrazol-4-yl)oxy)-4,5-dihydrothieno[3,4-g][1,2] benzothiazole-6-carboxamide]
Percent inhibition of CDK8 activity (%) [1]: 105% | Percent inhibition of CDK19 activity (%) [2]: 101% | inhibition at 1 µM [3]: 70%

COCC(=O)N(C)c1ccc(Oc2sc(C(N)=O)c3c2-c2sncc2CC3)cn1 [Example 125, 8-((6-((Methoxyacetyl)(methyl)amino)pyridin-3-yl)oxy)-4,5-dihydrothieno [3,4-g][1,2]benzothiazole-6-carboxamide]
Percent inhibition of CDK8 activity (%) [1]: 102% | Percent inhibition of CDK19 activity (%) [2]: 101% | inhibition at 1 µM [3]: 66%

COCC(=O)N(C)c1ccc(Oc2sc(C(N)=O)c3c2-c2sncc2CC3)c(C)n1 [Example 126, 8-((6-((Methoxyacetyl)(methyl)amino)-2-methylpyridin-3-yl)oxy)-4,5-dihydrothieno[3,4-g][1,2]benzothiazole-6-carboxamide]
Percent inhibition of CDK8 activity (%) [1]: 103% | Percent inhibition of CDK19 activity (%) [2]: 102% | inhibition at 1 µM [3]: 67%

COCC(=O)Nc1ccc(Oc2sc(C(N)=O)c3c2-c2sncc2CC3)c(C)n1 [Example 127, 8-((6-((Methoxyacetyl)amino)-2-methylpyridin-3-yl)oxy)-4,5-dihydrothieno[3,4-g][1,2]benzothiazole-6-carboxamide]
Percent inhibition of CDK8 activity (%) [1]: 106% | Percent inhibition of CDK19 activity (%) [2]: 100% | inhibition at 1 µM [3]: 65%

CC(=O)Nc1ccc(Oc2sc(C(N)=O)c3c2-c2sncc2CC3)c(C)n1 [Example 128, 8-((6-Acetamido-2-methylpyridin-3-yl)oxy)-4,5-dihydrothieno[3,4-g][1,2] benzothiazole-6-carboxamide]
Percent inhibition of CDK8 activity (%) [1]: 98% | Percent inhibition of CDK19 activity (%) [2]: 102% | inhibition at 1 µM [3]: 70%

CNc1ccc(Oc2sc(C(N)=O)c3c2-c2sncc2CC3)cn1 [Example 129, 8-((6-(Methylamino)pyridin-3-yl)oxy)-4,5-dihydrothieno[3,4-g][1,2] benzothiazole-6-carboxamide]
Percent inhibition of CDK8 activity (%) [1]: 100% | Percent inhibition of CDK19 activity (%) [2]: 98% | inhibition at 1 µM [3]: 66%

NC(=O)c1sc(Oc2ccc(NC(=O)C3CC3)nc2)c2c1CCc1cnsc1-2 [Example 130, 8-((6-((Cyclopropylcarbonyl)amino)pyridin-3-yl)oxy)-4,5-dihydrothieno [3,4-g][1,2]benzothiazole-6-carboxamide]
Percent inhibition of CDK8 activity (%) [1]: 101% | Percent inhibition of CDK19 activity (%) [2]: 99% | inhibition at 1 µM [3]: 66%
